“Also recorded” adds a separate entry of the source. Like-named read-outs stand apart in the source and are kept apart here. Ends that are not written are not given here.
Assays:
[1] = test system: LPS from K. pneumoniae; assay: LPS neutralization assay (Limulus amoebocyte lysate, QCL-1000); assay type: biochemical, Klebsiella pneumoniae; settings: read-out: IC50 values (μM) for LPS binding, Klebsiella
Summary of the method: (§1)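 LPS (0.04 units per strain) is mixed with compound and Limulus amoebocyte lysate. Proenzyme activation is then followed by chromogenic substrate cleavage and pNA absorbance at 405-410 nm. Dose-response curves are fit sigmoidally to give IC50.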

[2] = test system: LPS from P. aeruginosa; assay: as above; assay type: biochemical, Pseudomonas aeruginosa; settings: read-out: IC50 values (μM) for LPS binding, P.a.
Summary of the method: (§2)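 Chromogenic LAL assay: LPS activates a proenzyme that releases p-nitroaniline from a colourless substrate, read at 405–410 nm. Each LPS was used at 0.04 units (0.01 ng P. aeruginosa and E. coli 0111:B4 LPS, 0.03 ng S. typhimurium and S. marcascens LPS). IC50 was fitted from sigmoidal dose-response curves.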

[3] = test system: LPS from S. marcascens; assay: as above; assay type: biochemical, Serratia marcascens; settings: read-out: IC50 values (μM) for LPS binding, Serratia
Summary of the method: as §2

[4] = Hematocrit levels, first (MA148) study; assay type: in vivo, mice; settings: 10 mg/kg; last day of treatment; vehicle 47±5.7
Description: (§3) As an indirect measurement of general toxicity, body weights of mice were monitored twice weekly, using a digital balance (Ohaus Florham, N.J.). To determine hematocrit levels, blood samples were extracted by tail vein bleedings one day after terminating treatment, and blood was collected in heparinized micro-hematocrit capillary lubes (Fisher Pittsburgh, Pa.). Samples were spun down for 10 minutes in a micro-hematocrit centrifuge (Clay-Adams; NY), and the amount of hematocrit was determined using an international microcapillary reader (IEC; Needham, Mass.).

[5] = test system: B16F10 tumor cells; assay: Proliferation of B16F10 tumor cells; assay type: cell-based, murine
[6] = test system: LPS from S. typhimurium; assay: LPS neutralization assay (Limulus amoebocyte lysate, QCL-1000); assay type: biochemical, Salmonella typhimurium; settings: read-out: IC50 values (μM) for LPS binding, Salmonella
Summary of the method: as §2

[7] = test system: B16F10 tumor; assay: TUNEL staining for total cell apoptosis, B16F10 tumors; assay type: in vivo, mice; settings: B16F10, 10 mg/kg; mean ± standard error, 20 images
Description: (§4) To assess the extent of total cell apoptosis, tumor tissue sections were stained by using the TUNEL (terminal deoxyribonucleotidyl transferase-mediated dUTP-nick-end labeling) assay, which was performed according to the manufacturer's instructions (In situ cell death detection kit, fluorescein; TUNEL, Roche). After 1-hour incubation at room temperature, slides were washed with PBS and immediately imaged using an Olympus BX-60 fluorescence microscope at 200× magnification.

[8] = test system: LPS from E. coli serotype 055:B5; assay: LPS neutralization assay (Limulus amoebocyte lysate, QCL-1000); assay type: biochemical
Summary of the method: as §1

[9] = test system: LPS from E. coli serotype 0111:B4; assay: as above; assay type: biochemical; settings: read-out: IC50 values (μM) for LPS binding, E. coli 0111:B4
Summary of the method: as §2

[10] = Hematocrit levels, study with B16 tumors in immune competent mice; assay type: in vivo; settings: vehicle 51±1.4
Description: as §3

[11] = test system: MA148 tumor vessels; assay: Histological analysis of microvessel density, anti-CD31 staining, MA148 tumors; assay type: in vivo, mice; settings: MA148, 10 mg/kg; mean ± standard error, 20 images
Description: (§5) Immunohistochemistry was used to assess microvessel density and the extent of total cell apoptosis. Approximately, tumors of the same size and with no apparent necrosis were selected for processing. On the last day of treatment mice were sacrificed and tumors were excised. Tumor tissue was embedded in tissue freezing medium (Miles Inc, Elkart, Ind.) and shock frozen in liquid nitrogen. Sections of tissue (10 μm thickness) were prepared for immunohistochemical analysis. For this, tissue sections were brought to room temperature, air dried overnight, and then fixed in acetone for 10 minutes. Slides were allowed to air dry for at least 30 minutes and were washed three limes for 5 minutes each in phosphate-buffered saline (PBS, pH 7.4). Samples were then blocked with PBS containing 0.1% bovine serum albumin and 3% human serum albumin for at least 30 minutes at room temperature in a humidified box. Samples were subsequently incubated with phycoerytrin (PE)-conjugated monoclonal antibody to CD31 (PECAM-1) in a 1:50 dilution (Pharmigen, San Diego, Calif.) to stain for microvessel density.
(§6) Digital images were stored and processed using Adobe Photoshop (Adobe Inc., Mountain View Calif.). Quantification of microvessel density, were determined as described previously (Dings et al., Cancer Res 63, 382-385 (2003)). Statistical analysis was performed using the Student's t-test.

[12] = test system: fibroblasts; assay: Proliferation of fibroblasts (general cell toxicity check); assay type: cell-based
[13] = Toxicity assays in tumor-bearing mice: behavior, body weight, organ morphology; assay type: in vivo; settings: all in vivo tumor experiments
Description: as §3

[14] = test system: B16F10 tumor vessels; assay: Histological analysis of microvessel density, anti-CD31 staining, B16F10 tumors; assay type: in vivo, mice; settings: B16F10, 10 mg/kg; mean ± standard error, 20 images
Description: as §5, §6

[15] = test system: MA148 tumor; assay: TUNEL staining for total cell apoptosis, MA148 tumors; assay type: in vivo, mice; settings: MA148, 10 mg/kg; mean ± standard error, 20 images
Description: as §4

[16] = test system: MA148 human ovarian carcinoma; settings: 10 mg/kg/day; Dings et al., Cancer Lett 194; cited from earlier work
[17] = test system: LPS from E. coli 055:B5; assay: Endotoxemia study in mice, lethal dose of E. coli 055:B5 LPS; assay type: in vivo; settings: E. coli 055:B5 LPS 600 μg; 5 mg/kg
Description: In three separate studies, these compounds were tested against LPS derived from E. coli serotype 0111:B4, E. coli serotype 055:B5 LPS, and Salmonella. The compounds (in a final concentration of 2% DMSO v/v), were first mixed individually with LPS, and incubated for 30 minutes prior to i.p. injection into C57/BL6 mice (n=4-8/group). The control mice were treated with DMSO (2% v/v) alone. Each mouse received a lethal dose of LPS, with or without one of the compounds.
(§7) J Bacteriol 93, 1463-4 (1967)). Mice were provided food and water as usual ad libitum, and monitored for several days. When it was observed that mice were in distress and death was imminent, animals were sacrificed; in some cases, mice expired during the night and were found dead the following morning. Data are plotted as the number of surviving mice versus lime in hours. Statistical analysis was performed on the average amount of survival time per group with a maximum or 120 hours (surviving mice) by using the Student's t-test.

[18] = test system: LPS from six species of bacteria; assay: LPS neutralization assay, overall statements; assay type: biochemical; settings: library of 23 compounds
Text: The ability of compounds to neutralize endotoxin was detected in vitro by using the chromogenic QCL-1000 kit from BioWhittaker, Inc. (Walkersville, Md.), and as described in their protocol. This Limulus amoebocyte lysate (LAL) assay is quantitative for Gram negative bacterial endotoxin (lipopolysaccharide, LPS). In this assay compounds that are active inhibit the LPS-mediated activation of a proenzyme whose active form would release p-nitroaniline (pNA) from a colorless synthetic substrate producing a yellow color (pNA) whose absorption is monitored spectrophotometrically at 405-410 nm. The initial rate of enzyme activation is proportional to the concentration of endotoxin present.
Variants of LPS from six Gram negative bacteria were used: E. coli serotypes 0111:B4 (Combrex, Walkersville, Md.) and 055:B5 (Sigma, St. Louis, Mo.); Klebsiella pneumoniae (List Biologies, San Jose, Calif.); Pseudomonas aeruginosa (List Biologies, San Jose, Calif.); Salmonella typhimurium (List Biologies, San Jose, Calif.), and Serratia marcascens (List Biologies, San Jose, Calif.). The concentration of compound required to neutralize a given LPS and therefore to inhibit the Limulus amoebocyte lysate driven by 0.04 units of any given LPS was determined by dose response curves fit by using a standard sigmoidal function to determined the JC50 value for each lopomimetic compound. […]

[19] = Acute toxicity observed in the endotoxemia model; assay type: in vivo, mice; settings: i.p., single dose of 50 mg/kg, together with LPS
Description: as §7, with “C57 male black mice were injected i.p. with a solution that contained a lethal dose of LPS [600 μg of LPS from E. coli 055:B5 and Salmonella, and 500 μg of LPS from […]] and 1.25 mg of the lopomimetic compound (a dose of 50 mg/kg) (Rifkind, D. J” for “J”

[20] = Table 2, read-out: IC50 values (μM) for LPS binding, E. coli 055:B4
[21] = Table 3, errors estimated ±30%, read-out: IC50 values (μM) for LPS binding, E. coli 055:B5

Substance	IC50 ([1]; Table 2)	IC50 ([1]; Table 3, errors estimated ±30%)	IC50 ([2]; Table 2)	IC50 ([2]; Table 3, errors estimated ±30%)	IC50 ([3]; Table 2)	IC50 ([3]; Table 3, errors estimated ±30%)	IC50 ([6]; Table 2)	IC50 ([6]; Table 3, errors estimated ±30%)	IC50 [8, 20]	IC50 [8, 21]	IC50 ([9]; Table 2)	IC50 ([9]; Table 3, errors estimated ±30%)	other results
ANIKLSVQMKLFKRHLKWKIIVKLNDGRELSLD [βpep-25, reference compound]	2 µM	2 µM	1.2 µM	1.2 µM	4.1 µM	4.1 µM	2.5 µM	2.5 µM	2.5 µM	2.5 µM	2 µM	2 µM	Hematocrit levels ±SD [4]: 47±2.8 percentage of red blood cells; IC50 against B16F10 tumor cells [5]: neither demonstrated activity; Apoptosis [7]: 3303 ± 606 pixel counts per image; Hematocrit levels ±SD [10]: 52.5±3.5 percentage red blood cells; Branch Points [11]: 2.0 ± 0.5 pixel counts per image; End Points [11]: 16.6 ± 1.8 pixel counts per image; Vessel Density [11]: 7415 ± 686 pixel counts per image; Vessel Length [11]: 4.9 ± 0.6 pixel counts per image; concentration giving 50% growth inhibition, fibroblasts [12]: no delectable effects; signs of toxicity (behavior, weight gain, hematocrit), in words [13]: did not generally show signs of toxicity; Branch Points [14]: 4.5 ± 0.6 pixel counts per image; End Points [14]: 31.9 ± 3.8 pixel counts per image; Vessel Density [14]: 14050 ± 1826 pixel counts per image; Vessel Length [14]: 10.2 ± 1.2 pixel counts per image; Apoptosis [15]: 2418 ± 77 pixel counts per image; MA148 tumor inhibition shown previously [16]: 60 to 70%
5,11,17,23-Tetra-tert-butyl-25,26,27,28-tetrakis(4-guanidinobutoxy) calix[4]arene trifloroacetic acid salt [Compound 42]	1 µM	1 µM	1.5 µM	1.5 µM	> 5 µM	> 5 µM	0.6 µM	0.6 µM	0.04 µM	0.04 µM	0.7 µM	0.7 µM	survival of LPS-challenged mice [17]: ineffective; neutralizing LPS, ranking in words [18]: best LPS neutralizing compounds; also recorded: most effective for neutralizing LPS; sign of acute toxicity [19]: did not demonstrate any sign of acute toxicity
